According to ChEMBL document CHEMBL1201862, “PubChem BioAssay data set” (2004):
The source made the active and inactive calls.

What was measured:
[1] = biological target: T1, Neuropeptide Y receptor type 1 (Homo sapiens, UniProt P25929); experiment: Fluorescence-based counterscreen for potentiators or agonists of NPY-Y2: cell-based high-throughput dose response assay for potentiators or agonists of NPY-Y1.; format: functional
T1 sequence (P25929 whole entry): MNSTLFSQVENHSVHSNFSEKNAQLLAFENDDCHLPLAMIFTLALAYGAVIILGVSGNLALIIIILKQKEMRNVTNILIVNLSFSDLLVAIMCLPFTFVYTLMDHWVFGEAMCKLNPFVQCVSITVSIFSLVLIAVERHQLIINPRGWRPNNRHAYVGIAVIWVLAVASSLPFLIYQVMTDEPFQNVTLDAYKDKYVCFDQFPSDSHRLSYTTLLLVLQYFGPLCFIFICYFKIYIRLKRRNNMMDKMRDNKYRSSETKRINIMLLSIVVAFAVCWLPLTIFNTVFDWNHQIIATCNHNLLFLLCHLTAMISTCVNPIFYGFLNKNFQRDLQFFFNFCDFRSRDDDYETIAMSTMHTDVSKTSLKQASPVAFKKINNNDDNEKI

[2] = NIH-3T3 fibroblast cytotoxicity, dose response, cytotoxicity control, cell-based, fluorescence, Alamar Blue, secondary assay (AID 2327); format: functional;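 further: NIH-3T3 mouse fibroblasts cultured with fluconazole at 8 µg/mL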
[3] = fluconazole-exposed Candida albicans growth modulators – fluorescence, retest, confirmation (AID 2467); format: functional, cell-based
[4] = biological target: T2, Neuropeptide Y receptor type 2 (Homo sapiens, UniProt P49146); experiment: Fluorescence-based cell-based high-throughput dose response assay for agonists of NPY-Y2. [Related pubchem assays: 1703 (Screening assay (CNGC inhibitors).), 1359 (Screening assay (NPY-Y2 potentiators or agonists).), 1304 (Screening assay (NPY-Y1 potentiators or agonists).), 1710 (Screening assay (NPY-Y2 agonists).), 1791 (Summary AID.)]; format: functional
T2 sequence (P49146 whole entry): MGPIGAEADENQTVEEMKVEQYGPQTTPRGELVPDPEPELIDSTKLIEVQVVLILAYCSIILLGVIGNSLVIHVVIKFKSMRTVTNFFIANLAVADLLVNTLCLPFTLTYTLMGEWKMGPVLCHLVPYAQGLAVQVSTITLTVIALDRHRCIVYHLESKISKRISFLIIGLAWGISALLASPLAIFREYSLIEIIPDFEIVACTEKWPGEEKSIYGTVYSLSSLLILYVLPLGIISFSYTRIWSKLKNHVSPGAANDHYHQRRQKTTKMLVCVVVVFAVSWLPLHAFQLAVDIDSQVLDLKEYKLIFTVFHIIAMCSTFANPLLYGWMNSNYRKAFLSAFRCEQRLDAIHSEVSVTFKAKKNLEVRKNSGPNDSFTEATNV

[5] = biological target: T3, Histone-lysine N-methyltransferase NSD2 (Homo sapiens, UniProt O96028); format: biochemical
T3 sequence (O96028 whole entry): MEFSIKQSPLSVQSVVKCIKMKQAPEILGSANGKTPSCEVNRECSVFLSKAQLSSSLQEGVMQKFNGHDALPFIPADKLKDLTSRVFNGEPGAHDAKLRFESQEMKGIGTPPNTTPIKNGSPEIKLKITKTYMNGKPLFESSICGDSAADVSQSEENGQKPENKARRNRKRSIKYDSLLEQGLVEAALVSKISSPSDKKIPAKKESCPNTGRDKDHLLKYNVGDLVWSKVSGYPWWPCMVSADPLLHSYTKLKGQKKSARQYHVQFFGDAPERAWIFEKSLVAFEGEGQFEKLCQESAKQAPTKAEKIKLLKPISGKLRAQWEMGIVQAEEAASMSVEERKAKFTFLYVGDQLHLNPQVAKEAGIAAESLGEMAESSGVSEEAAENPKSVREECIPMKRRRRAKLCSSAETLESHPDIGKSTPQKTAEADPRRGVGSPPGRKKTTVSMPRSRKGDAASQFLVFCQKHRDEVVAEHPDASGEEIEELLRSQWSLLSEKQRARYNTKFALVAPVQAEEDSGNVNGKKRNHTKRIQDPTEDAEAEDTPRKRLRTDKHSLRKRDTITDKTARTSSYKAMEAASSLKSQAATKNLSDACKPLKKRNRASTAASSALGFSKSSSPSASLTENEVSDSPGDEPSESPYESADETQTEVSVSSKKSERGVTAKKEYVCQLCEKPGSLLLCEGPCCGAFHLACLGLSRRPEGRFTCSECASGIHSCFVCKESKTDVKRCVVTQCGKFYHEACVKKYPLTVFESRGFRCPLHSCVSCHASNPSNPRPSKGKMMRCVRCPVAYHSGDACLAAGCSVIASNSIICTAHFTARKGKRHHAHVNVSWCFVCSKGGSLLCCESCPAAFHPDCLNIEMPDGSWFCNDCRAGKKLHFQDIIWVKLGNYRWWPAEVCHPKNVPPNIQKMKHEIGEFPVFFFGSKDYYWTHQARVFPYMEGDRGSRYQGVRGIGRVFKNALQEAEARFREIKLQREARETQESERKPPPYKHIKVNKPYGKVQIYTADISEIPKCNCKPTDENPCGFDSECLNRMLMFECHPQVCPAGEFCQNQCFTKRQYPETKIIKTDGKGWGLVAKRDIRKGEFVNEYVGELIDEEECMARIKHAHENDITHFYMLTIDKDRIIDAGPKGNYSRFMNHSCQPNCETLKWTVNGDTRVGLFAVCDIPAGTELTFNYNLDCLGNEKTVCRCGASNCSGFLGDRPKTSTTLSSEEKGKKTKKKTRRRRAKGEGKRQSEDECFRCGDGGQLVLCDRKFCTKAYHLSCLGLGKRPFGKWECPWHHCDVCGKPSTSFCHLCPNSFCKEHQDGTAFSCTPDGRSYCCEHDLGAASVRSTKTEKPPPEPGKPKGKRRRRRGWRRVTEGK

Nonstructural protein 1 = Nonstructural protein 1 (Influenza A virus, UniProt Q194T2); format: functional, Influenza A virus (A/California/07/2009(H1N1))
Sequence of Nonstructural protein 1 (Q194T2 whole entry): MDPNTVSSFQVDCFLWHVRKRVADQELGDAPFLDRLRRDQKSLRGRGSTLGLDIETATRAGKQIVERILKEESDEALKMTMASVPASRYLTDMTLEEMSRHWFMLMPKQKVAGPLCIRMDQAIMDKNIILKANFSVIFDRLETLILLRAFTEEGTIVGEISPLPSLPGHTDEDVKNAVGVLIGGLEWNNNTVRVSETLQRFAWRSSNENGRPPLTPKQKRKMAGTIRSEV

[6] = biological target: T1, Neuropeptide Y receptor type 1; experiment: Fluorescence-based counterscreen for agonists of NPY-Y2: cell-based high-throughput dose response assay for agonists of NPY-Y1.; format: functional
[7] = biological target: T4, Zinc finger protein mex-5 (Caenorhabditis elegans, UniProt Q9XUB2); experiment: potency of MEX-5 RNA-binding blockers – biochemical, C. elegans, fluorescence polarization, dose response (AID 1960)
T4 sequence (Q9XUB2 whole entry): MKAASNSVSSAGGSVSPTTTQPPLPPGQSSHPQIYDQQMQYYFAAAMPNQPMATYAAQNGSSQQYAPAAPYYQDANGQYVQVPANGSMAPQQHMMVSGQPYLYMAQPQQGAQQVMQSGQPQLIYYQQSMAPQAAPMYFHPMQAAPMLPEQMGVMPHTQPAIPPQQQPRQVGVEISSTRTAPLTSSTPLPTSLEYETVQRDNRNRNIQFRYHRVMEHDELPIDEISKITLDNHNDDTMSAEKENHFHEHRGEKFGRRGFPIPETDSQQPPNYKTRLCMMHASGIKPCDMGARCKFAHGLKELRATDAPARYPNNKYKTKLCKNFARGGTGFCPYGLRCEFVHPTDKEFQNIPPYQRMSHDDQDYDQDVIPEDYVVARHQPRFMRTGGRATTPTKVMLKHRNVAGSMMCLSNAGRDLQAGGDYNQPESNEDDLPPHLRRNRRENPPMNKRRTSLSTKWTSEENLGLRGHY

HEK293 = experiment: Fluorescence-based counterscreen for potentiators or agonists of NPY-Y2: cell-based high-throughput dose response assay to identify inhibitors of cyclic nucleotide gated ion channel (CNGC) activity. In this assay, the parental HEK293 cell line transfected with a cyclic-nucleotide gated ion channel (CNGC)-based cAMP sensor is used to measure inhibition of isoproterenol-induced CNGC activity by test compound.; format: functional; conditions: Homo sapiens;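 further: stimulus is 1 µM isoproterenol at EC100 plus PDE inhibitor Ro 20-1724 at 25 µM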
[8] = biological target: T5, RNA-binding protein pos-1 (Caenorhabditis elegans, UniProt G5EF15); experiment: disruptors of C. elegans POS-1 RNA interaction – biochemical, fluorescence polarization, dose response (AID 1964);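 further: purified POS-1 fused to maltose binding protein made in E. coli; potency of compounds blocking POS-1 binding to fluorescent RNA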
T5 sequence (G5EF15 whole entry): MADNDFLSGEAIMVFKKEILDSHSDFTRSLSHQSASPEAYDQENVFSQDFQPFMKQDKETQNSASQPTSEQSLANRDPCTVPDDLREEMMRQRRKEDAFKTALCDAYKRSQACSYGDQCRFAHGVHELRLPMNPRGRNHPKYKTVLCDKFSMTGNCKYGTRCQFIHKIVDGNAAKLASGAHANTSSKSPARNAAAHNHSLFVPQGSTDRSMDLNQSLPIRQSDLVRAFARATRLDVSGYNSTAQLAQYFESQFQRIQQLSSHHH

[9] = Luminescent dose response cell-based high throughput screening assay for inhibitors of the Janus kinase 2 mutant JAK2V617F. [Related pubchem assays: 1446 (Primary screen.), 1521 (Confirmation assay.), 1486 (Counter screen.)]; format: functional
[10] = biological target: T2, Neuropeptide Y receptor type 2; experiment: Fluorescence-based cell-based high-throughput dose response assay for potentiators or agonists of NPY-Y2. [Related pubchem assays: 1539 (Screening assay (NPY-Y2 potentiators or agonists).), 1703 (Screening assay (CNGC inhibitors).), 1359 (Screening assay (NPY-Y2 potentiators or agonists).), 1304 (Screening assay (NPY-Y1 potentiators or agonists).) …; format: functional

With O=C1/C(=C/c2ccc(O)c(O)c2)SC(=S)N1Nc1ccccc1 the EC50 [1] was > 35.4 µM (not active), the EC50 [2] was 41.6 µM (active) and the EC50 [3] was > 38 µM (not active). The EC50 [4] was > 35.4 µM (not active), the AC50 [5] was 1.49 µM (active) and the IC50 (Nonstructural protein 1) was 31.6 µM (active). The EC50 [6] was > 11.8 µM (not active), the EC50 [7] was 16.2 µM (active) and the EC50 (HEK293) was > 35.4 µM (not active). The EC50 [8] was 39.2 µM (active), the IC50 [9] was 1.53 µM (active) and the EC50 [10] was 26.6 µM (not active).
